These results are taken from patent US20200129435A1, “COMPOSITION FOR DELIVERING A THERAPEUTIC AGENT AND METHODS FOR MAKING AND USING” (UVic Industry Partnerships Inc., priority 2018, published 2020).

Data set [1] relates to U-87 MG cells. The data set can be described thus: Cell count assay (hemocytometer, Trypan Blue). The settings on record: 40 μM ATRA in cell medium. It counts as cell-based, human. The method, then: U-87 MG cells were provided by ATCC® and cultured in Dulbecco's Modified Eagle Medium (DMEM), high glucose (Gibco™ by Life Technologies™, Carlsbad, USA, Catalog No.: 11965084) with 10% fetal bovine serum (Gibco™ by Life Technologies™, Carlsbad, USA, Catalog No.: 12483020), 1% penicillin-streptomycin (Invitrogen/Life Technologies™, Carlsbad, USA, Catalog No.: 15140122), and 4 μg/ml puromycin at 37° C. in an atmosphere of 5% CO2. Cells were counted by hemocytometer (Bright-Line™) with two-time dilution in Trypan Blue solution (Sigma-Aldrich, St Louis, USA, Catalog No.:93595).

The test system of data set [2] is U-87 MG cells. The data set is described as follows: PrestoBlue cell viability assay (Example 1). The data set is classed as cell-based, human. On the procedure:
Cell viability was assessed by PrestoBlue™ (Invitrogen/Life Technologies™, Carlsbad, USA, Catalog No.: A13262) assay. In this experiment, cells were first seeded in 6-well plates in a density of 6×10^4 cells/well. Viability tests were conducted at 48, 72, and 96 hours by replacing the cell media with 10% PrestoBlu™ reagent and incubating at 37° C. for 1 hour. Following, 100 μl of the incubated 10% PrestoBlue™ reagent from each well of the assay plates was transferred to a new well in a 96-well plate and read by a microplate reader (Infinite M200 Pro). Finally, viability was calculated by the following equation: […]

In data set [3] the test system is U-87 MG cells. The data set can be described thus: Apoptosis assay, propidium iodide flow cytometry, sub-G1 population. It counts as cell-based, human. The settings on record: free ATRA 40 μM; 48 hours.
Method: To determine the level of apoptosis induced by ATRA apoptosis levels were detected using propidium iodide (PI) lysis buffer and flow cytometry. […] 1% sodium citrate (Bio Basic, Markham, Canada, Catalog No.: CB0035) and 0.1% Triton X-100 (Sigma-Aldrich, Sigma-Aldrich, St. Louis, USA Catalog No.: X100) were added to distilled water to prepare an initial solution for PI lysis buffer. The pH of the solution was adjusted to 7.4 and stored.
Prior to the apoptosis assay, RNase (Sigma-Aldrich, St. Louis, USA Catalog No.: R6513) and propidium iodide (Sigma-Aldrich, St. Louis, USA Catalog No.: P4864) was added to the initial solution to reach concentrations of 0.5 mg/ml and 40 μg/ml for RNase and propidium iodide, respectively. The cell media was collected and the cells were detached with EDTA (Caledon Laboratory Chemicals, Georgetown, Canada, Catalog No.: 3460-1-65) solution. The cell suspension was centrifuged at 4° C. in 1500 g for 5 minutes. Following, the cell pellets were washed twice with 500 μl of DPBS (Gibco™ by Life Technologies™, Carlsbad, USA, Catalog No.: 14190250) 4° C. The pellets were then lysed and stained with 250 μl of PI lysis buffer, and kept at room temperature in the dark for 15-30 minutes. […] Finally, the red channel was read on the flow cytometer to determine the sub-G1 population.
The test system of data set [4] is U-87 MG cells. The data set is described as follows: Bright field microscopy of treated cells. It counts as cell-based, human. To be noted: free ATRA = 40 μM.
The conditions of data set [5]: oral administration is the main route; cited from earlier work.
The next data set relates to U87 glioblastoma cells. The data set is described as follows: PrestoBlue cell viability assay (Example 2). The data set is classed as cell-based. To be noted: Homo sapiens, 96-hours treatment, read-out: reduction of cell viability. On the procedure: PrestoBlue™ cell viability assay was used to determine the effect of TMZ on the viability and proliferation of U87 glioblastoma cells. In this assay, metabolically active cells reduce a non-fluorescent compound (resazurin) in the PrestoBlue™ solution into a fluorescent molecule (resorufin).
In this study, U87 glioblastoma cells were seeded in a 96 well plate at 5,000 cells per well density, and a 24 well plate at 25,000 cells per well density to evaluate the cytotoxicity of free TMZ and one embodiment of the disclosed composition, respectively. The wells were then incubated for 24 hours at 37° C. with 95% relative humidity and 5% CO2. To determine the effect of the free TMZ, U87 glioblastoma cells were treated with different concentrations of the drug from 100 μM to 1000 μM in the cell medium. To study the effect of the disclosed hydrogel composition, the cells were treated with both microsphere-loaded (TMZ concentration of 100 μM) and blank meshes. Cells were incubated for 24, 48, 72, and 96 hours without changing the cell culture medium. […] Subsequently, the cell culture medium containing presto blue was transferred into a new well plate and the fluorescent intensity of each well was measured at excitation wavelength of 535 nm and emission wavelength of 615 nm by using a plate reader. Cell viability was then calculated by using equation 4 (Eq. 4): […]

Where two headings read alike, the source gives them in different places.

Take `CC1=C(/C=C/C(C)=C/C=C/C(C)=C/C(=O)O)C(C)(C)CCC1` [ATRA, all-trans retinoic acid]: the “cell population relative to control condition” value with U-87 MG cells [1] (48 hours) was 86.0%±7.2%; in the data set with U-87 MG cells [1] (96 hours), 64.4%±8.6%. The “cell viability compared to control” value was determined as 77% in the data set with U-87 MG cells [2] (20 μM in cell medium, 96 hours) and 72% in the data set with U-87 MG cells [2] (40 μM in cell medium, 96 hours). The viability at 20 µM in the data set with U-87 MG cells [2] (Homo sapiens, U-87 MG, 48 h, 20 μM in cell medium, 48 hours, read-out: cell viability compared to control) amounted to 88.4%; in the data set with U-87 MG cells [2] (Homo sapiens, U-87 MG, 96 h, 20 μM in cell medium, 96 hours, read-out: cell viability compared to control), 77.3%. In the data set on U-87 MG cells [2] (Homo sapiens, U-87 MG, 96 h, 40 μM in cell medium, 96 hours, read-out: cell viability compared to control), the viability at 40 µM was found to be 72.4%. The “apoptosis (sub-G1 population)” value in the data set on U-87 MG cells [3] was “about 2%”. Further, in the data set with U-87 MG cells [4], the cell morphology entry was “cell shrinkage”. In addition, the half-life result in data set [5] was “about 1.5 hours”.
Turning to `Cn1nnc2c(C(N)=O)ncn2c1=O` [TMZ, Temozolomide], in the data set with U87 glioblastoma cells (free TMZ 100 μM), the cytotoxicity at 100 µM was 78%. Moreover, in the data set on U87 glioblastoma cells (free TMZ 1000 μM), the cytotoxicity at 1000 µM came to 95%.
